Experimental data as given in patent publication US20200170259A1, “COMPOSITIONS AND METHODS FOR INDUCING PLANT GENE EXPRESSION AND ALTERING PLANT MICROBIOME COMPOSITION FOR IMPROVED CROP PERFORMANCE” (ADVANCED BIOLOGICAL MARKETING, INC., priority 2018, published 2020).

Assays:
[1] = tested on: rhizosphere inhabitants; details: in vivo
Protocol: A survey of rhizosphere inhabitants in a corn trial with control, Trichoderma strain treatment for corn (2 ABM Trichoderma strains), [MUT] (ABM Trichoderma+Bacillus strains), or Trichoderma metabolite (1-Octene-3-ol) seed treatments was made. The organism lifestyle metadata were analyzed for each treatment.

[2] = tested on: maize gene expression; experiment: Differential gene expression (Blast 2Go DGE) in maize versus control (FIGS. 20-25); assay type: in vivo
Protocol: Turning to FIGS. 20-24, differential gene expression (Blast 2Go DGE) is measured, wherein the corresponding legend of FIG. 20 presents comparison to a control, wherein the higher scale shown (color or patterned), the higher level of upregulation has occurred.
The lab plants were grown in conical tubes with nutrient bath and to simulate osmotic stress from drought they added a polyethylene glycol (PEG) solution to the tubes.
FIG. 25 depicts a table of changes in corn gene expression versus an untreated control in RNAseq experiments of FIGS. 20-24. Reference to “Lab (sterile, no soil)” is the data from the conical tube experiments of FIG. 23 and FIG. 24.

[3] = tested on: corn gene expression; experiment: RNAseq of corn seedlings, variability of gene expression (FIGS. 17-19); assay type: in vivo
Description: Plants colonized by Trichoderma show highly focused and reproducible patterns of gene expression. Uncolonized plants show highly variable gene expression. We propose that gene expression in plants colonized by Trichoderma responds specifically to that colonization and further that Trichoderma redirects plant gene expression to more targeted biological processes supporting Trichoderma niche development. Gene expression in uncolonized plants responds to the entire set of environmental factors present with relatively little process hierarchy. FIG. 17 depicts a representation of all gene expression in corn seedlings exposed to various seed treatments versus an untreated seed in both standard and drought conditions. FIG. 17 further groups the applicable replicates in order to convey variability, and data sets refer to principal component analysis, in order to evidence variability. All samples with the exception of the Trichoderma metabolite (1-Octene-3-ol), are root apical meristem (RAM) measurements. The sampling occurred from seeds that were grown for seven days before sampling. Observed variability was high in corn gene expression in standard and drought conditions. (See untreated). […] (see SabrEx and Oct). Thus, untreated plants are busy responding to a lot of environmental factors, Trichoderma strain treatment/1-Octene-3-ol treated plants are controlled somewhat by the treatment, which supports findings in previous RNAseq experiments, where correlation is shown by the reduction in microbiome diversity in the field, in the reduction of error bars in field performance data. This is a clear benefit of Trichoderma strain treatment and metabolite (1-Octene-3-ol). Reduction of variable performance in the field is therefore because the plant gene expression has been remodeled or refined by Trichoderma. FIGS. 18A-B depict multidimensional scaling plots of corn gene expression when colonized by Trichoderma, particularly, 2-Trichoderma strain treatment and untreated in unstressed conditions. […]

In the case of `C=CC(O)CCCCC` (centres unmarked) [1-Octene-3-ol], the “Plant disease resulting from rhizosphere pathogens” value [1] is reported as “did not result in plant disease”, the Shoot responses upregulated [2] is reported as “Abiotic stimulus, water deprivation, and chemical stimulus” and the “Reproducibility of expression pattern (multidimensional scaling plot)” value ([3]; FIGS. 18A-B, unstressed conditions per legend) is reported as “generally more reproducible expression pattern than the untreated”. The “Reproducibility of expression pattern (multidimensional scaling plot)” value ([3]; FIGS. 19A-B, drought conditions per legend) was “generally more reproducible expression pattern than the untreated” and the “Effect on variability of overall corn gene expression (principal component analysis)” value ([3]; seedlings grown seven days, standard and drought conditions, FIG. 17) was “focusses gene expression”.
